According to patent US20250367166A1, “NEXT GENERATION DIPROVOCIMS THAT ACTIVATE THE INNATE AND ADAPTIVE IMMUNE RESPONSE” (The Scripps Research Institute, priority 2022, published 2025):
Where two headings read alike, the source gives them in different places.

Legend:
[1] = biological target: TLR1/TLR2 (Homo sapiens, UniProt O60603+Q15399); assay: TNF-α release from PMA-differentiated human THP-1 cells (ELISA); settings: for Emax: THP-1, 4 h, read-out: Efficacy (magnitude) of response versus diprovocim-1 (100%), THP-1; for EC50: read-out: EC50 (nM) (THP-1): EC50 TNF-α release from human THP-1 cells;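 for all read-outs here: cells exposed to graded compound concentrations for 4 h, TNF-α quantified in supernatant, LPS as positive and DMSO as negative control, values are duplicate means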
Sequence of TLR1/TLR2 (Homo sapiens, UniProt O60603+Q15399) (Q15399 25-786): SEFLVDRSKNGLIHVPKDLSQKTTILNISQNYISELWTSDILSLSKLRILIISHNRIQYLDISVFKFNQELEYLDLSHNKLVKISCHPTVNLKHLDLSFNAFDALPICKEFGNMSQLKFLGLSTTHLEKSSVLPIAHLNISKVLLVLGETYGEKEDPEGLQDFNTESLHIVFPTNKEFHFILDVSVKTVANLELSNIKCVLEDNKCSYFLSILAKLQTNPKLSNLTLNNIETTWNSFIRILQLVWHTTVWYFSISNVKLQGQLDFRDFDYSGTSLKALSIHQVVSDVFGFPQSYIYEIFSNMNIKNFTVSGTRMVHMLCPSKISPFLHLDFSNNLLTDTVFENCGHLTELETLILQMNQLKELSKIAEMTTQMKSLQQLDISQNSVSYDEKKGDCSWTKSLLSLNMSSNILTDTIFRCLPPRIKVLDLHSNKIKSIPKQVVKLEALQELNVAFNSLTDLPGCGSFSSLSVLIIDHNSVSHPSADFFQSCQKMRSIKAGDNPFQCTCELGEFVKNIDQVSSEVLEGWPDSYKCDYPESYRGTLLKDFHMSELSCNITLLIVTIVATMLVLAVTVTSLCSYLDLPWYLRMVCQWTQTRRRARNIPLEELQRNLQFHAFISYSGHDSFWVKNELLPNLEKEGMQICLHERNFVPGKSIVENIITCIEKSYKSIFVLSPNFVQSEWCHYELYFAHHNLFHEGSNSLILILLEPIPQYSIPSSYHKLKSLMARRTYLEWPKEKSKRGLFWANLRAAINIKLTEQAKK
Sequence of TLR1/TLR2 (Homo sapiens, UniProt O60603+Q15399) (O60603 21-784): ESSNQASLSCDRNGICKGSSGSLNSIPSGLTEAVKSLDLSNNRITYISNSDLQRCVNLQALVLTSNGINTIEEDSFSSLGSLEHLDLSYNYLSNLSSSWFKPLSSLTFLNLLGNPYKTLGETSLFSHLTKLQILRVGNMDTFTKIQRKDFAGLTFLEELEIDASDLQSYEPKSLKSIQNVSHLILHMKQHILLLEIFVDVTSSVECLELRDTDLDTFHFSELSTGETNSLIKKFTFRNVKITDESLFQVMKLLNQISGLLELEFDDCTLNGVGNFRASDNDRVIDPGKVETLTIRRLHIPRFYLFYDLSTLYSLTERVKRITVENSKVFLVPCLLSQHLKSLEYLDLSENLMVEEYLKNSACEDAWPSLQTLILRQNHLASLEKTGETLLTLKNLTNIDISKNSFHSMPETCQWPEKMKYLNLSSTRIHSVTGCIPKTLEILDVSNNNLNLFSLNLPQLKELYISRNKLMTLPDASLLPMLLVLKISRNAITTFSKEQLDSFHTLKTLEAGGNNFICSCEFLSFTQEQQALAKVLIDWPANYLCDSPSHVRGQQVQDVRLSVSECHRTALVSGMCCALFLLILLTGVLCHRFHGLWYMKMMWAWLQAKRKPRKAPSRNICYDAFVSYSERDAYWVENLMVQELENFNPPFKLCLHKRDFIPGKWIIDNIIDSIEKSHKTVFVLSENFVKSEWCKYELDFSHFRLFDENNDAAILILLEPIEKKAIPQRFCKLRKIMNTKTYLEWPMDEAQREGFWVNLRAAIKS
Protocol: THP-1 (American Type Culture Collection) cells, a human monocytic leukemia cell line, were differentiated by treatment with 100 nM PMA (Sigma) in Roswell Park Memorial Institute (RPMI) cell culture medium [RPMI containing 10% vol/vol FBS (Gemini Bio Products), 1% penicillin and streptomycin (Life Technologies)] for 24 h. After that, the cells were washed with PBS and cultured in fresh RPMI cell culture medium for 24 h before use in studies. PMA-differentiated THP-1 cells were seeded onto 96-well plates at 0.5×10^5 cells per well and treated with systematically varied concentrations of the candidate compounds (dissolved in DMSO, and the final assay DMSO concentration (0.1%) was kept constant in all experiments) for 4 h. Ultra-pure LPS (dissolved in H2O, Enzo Life Sciences) was assessed alongside the compounds as a positive control and DMSO treated control was used as a negative control. Human TNF-α in the supernatants was measured by ELISA (eBioscience). This assay was used for establishing dose-response curves and measured EC50's. EC50's were calculated by Graphpad Prism. All data is the mean of duplicates and SD is within +10% of mean.

[2] = biological target: TLR1/TLR2 (Mus musculus, UniProt Q9EPQ1+Q9QUN7); assay: TNF-α release from thioglycolate-elicited mouse peritoneal macrophages (ELISA); settings: for Emax: 4 h, read-out: Efficacy (magnitude) of response versus diprovocim-1 (100%), mouse macrophages
Sequence of TLR1/TLR2 (Mus musculus, UniProt Q9EPQ1+Q9QUN7) (Q9EPQ1 26-795): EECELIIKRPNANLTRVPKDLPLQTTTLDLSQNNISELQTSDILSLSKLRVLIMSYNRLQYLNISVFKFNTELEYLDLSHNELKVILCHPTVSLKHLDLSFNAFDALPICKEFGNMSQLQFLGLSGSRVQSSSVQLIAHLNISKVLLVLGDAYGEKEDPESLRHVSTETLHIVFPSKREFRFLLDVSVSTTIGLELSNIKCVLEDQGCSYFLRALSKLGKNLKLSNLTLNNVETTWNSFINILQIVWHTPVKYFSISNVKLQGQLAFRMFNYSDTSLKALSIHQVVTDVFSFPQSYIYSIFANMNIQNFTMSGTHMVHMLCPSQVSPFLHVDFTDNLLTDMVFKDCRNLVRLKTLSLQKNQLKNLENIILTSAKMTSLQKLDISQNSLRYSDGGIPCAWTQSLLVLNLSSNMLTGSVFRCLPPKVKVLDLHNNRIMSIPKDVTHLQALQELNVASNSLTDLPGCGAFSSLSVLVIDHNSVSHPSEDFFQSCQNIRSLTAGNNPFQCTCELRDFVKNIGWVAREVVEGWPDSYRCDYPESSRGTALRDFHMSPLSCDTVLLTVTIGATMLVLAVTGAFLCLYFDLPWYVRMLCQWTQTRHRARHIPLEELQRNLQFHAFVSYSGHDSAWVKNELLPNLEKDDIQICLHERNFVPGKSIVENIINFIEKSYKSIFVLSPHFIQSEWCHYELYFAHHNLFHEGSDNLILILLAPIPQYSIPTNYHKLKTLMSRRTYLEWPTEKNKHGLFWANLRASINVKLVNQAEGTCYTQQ
Sequence of TLR1/TLR2 (Mus musculus, UniProt Q9EPQ1+Q9QUN7) (Q9QUN7 25-784): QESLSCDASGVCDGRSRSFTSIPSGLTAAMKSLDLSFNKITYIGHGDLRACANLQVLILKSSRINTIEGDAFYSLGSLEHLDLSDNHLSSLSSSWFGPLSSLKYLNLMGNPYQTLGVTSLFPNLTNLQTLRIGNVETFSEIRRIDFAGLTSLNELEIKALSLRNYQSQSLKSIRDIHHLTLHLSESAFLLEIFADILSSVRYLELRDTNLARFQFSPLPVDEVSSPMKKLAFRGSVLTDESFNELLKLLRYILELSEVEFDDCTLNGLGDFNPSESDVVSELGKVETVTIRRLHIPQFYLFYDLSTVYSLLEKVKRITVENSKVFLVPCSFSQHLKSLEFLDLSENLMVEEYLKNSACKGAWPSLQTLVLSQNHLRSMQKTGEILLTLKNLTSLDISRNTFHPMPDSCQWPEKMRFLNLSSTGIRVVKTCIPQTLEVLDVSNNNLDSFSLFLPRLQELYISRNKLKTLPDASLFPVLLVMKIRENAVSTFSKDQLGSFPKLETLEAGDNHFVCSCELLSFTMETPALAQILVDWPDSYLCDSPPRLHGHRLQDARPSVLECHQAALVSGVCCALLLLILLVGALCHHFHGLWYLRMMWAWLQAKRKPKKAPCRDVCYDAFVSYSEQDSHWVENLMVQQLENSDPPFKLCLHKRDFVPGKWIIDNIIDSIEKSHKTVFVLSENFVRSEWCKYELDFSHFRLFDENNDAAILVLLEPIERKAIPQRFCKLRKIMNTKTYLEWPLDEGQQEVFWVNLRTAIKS
Protocol: Thioglycolate-elicited macrophages were recovered 4 days after i.p. injection of 2 mL BBL thioglycolate medium, brewer modified (4%; BD Biosciences) by peritoneal lavage with 5 mL phosphate buffered saline (PBS). […] Cells were seeded onto 96-well plates at 1×10^3 cells per well and treated with systematically varied concentrations of the candidate compounds (dissolved in DMSO, and final assay DMSO concentrations (0.5%) were kept constant in all experiments) for 4 h. Ultra-pure LPS (dissolved in H2O, Enzo Life Sciences) was assessed alongside the compounds as a positive control and DMSO treated controls. […] Mouse TNF-α in the supernatants was measured by ELISA kits according to the manufacturer's instructions (eBioscience). EC50's were calculated by Graphpad Prism. All data is mean of duplicates and SD is within ±10% of mean. Mouse cells were from wild type C57BL/6J mice.

[3] = read-out: EC50 (nM) (mouse): EC50 TNF-α release from mouse macrophages, Table 1
[4] = read-out: EC50 (nM) (mouse): EC50 TNF-α release from mouse macrophages, Table 5
[5] = read-out: EC50 (nM) (mouse): EC50 TNF-α release from mouse macrophages, Table 3
[6] = read-out: EC50 (nM) (mouse): EC50 TNF-α release from mouse macrophages, Table 6

| Structure (SMILES) | Emax [1] [%] | EC50 ([1]; Table 1) [nM] | Emax [2] [%] | EC50 [2, 3] [nM] | also measured |
| --- | --- | --- | --- | --- | --- |
| Nc1ccc(CCCCCCCCNC(=O)[C@@H]2CN(C(=O)c3ccc(C(=O)N4C[C@@H](C(=O)N[C@H]5C[C@@H]5c5ccccc5)[C@H](C(=O)N[C@H]5C[C@@H]5c5ccccc5)C4)cc3)C[C@H]2C(=O)N[C@H]2C[C@@H]2c2ccccc2)cc1 [Compound 27, (3S,4S)—N-(8-(4-Aminophenyl)octyl)-1-(4-((3S,4S)-3,4-bis(((1S,2R)-2-phenylcyclopropyl)carbamoyl)-pyrrolidine-1-carbonyl)benzoyl)-N^4-((1S,2R)-2-phenyl-cyclopropyl)-pyrrolidine-3,4-dicarboxamide] | 100 | 0.3 | 250 | 6 |  |
| CC(C)(C)OC(=O)N[C@@H](CSCc1ccccc1)C(=O)OCCCCCCCCCCCCNC(=O)[C@@H]1CN(C(=O)c2ccc(C(=O)N3C[C@@H](C(=O)N[C@H]4C[C@@H]4c4ccccc4)[C@H](C(=O)N[C@H]4C[C@@H]4c4ccccc4)C3)cc2)C[C@H]1C(=O)N[C@H]1C[C@@H]1c1ccccc1 [Compound 65, (R)-12-((3S,4S)-1-(4-((3S,4S)-3,4-Bis(((1S,2R)-2-phenylcyclopropyl)carbamoyl)pyrrolidine-1-carbonyl)-benzoyl)-4-(((1S,2R)-2-phenylcyclopropyl)carbamoyl)-pyrrolidine-3-carboxamido)dodecyl 3-(benzylthio)-2-((tert-butoxycarbonyl)amino)propanoate] | 100 |  | 200 |  | EC50 ([1]; Table 5): 18 nM; EC50 [2, 4]: 360 nM |
| O=C(NCCCCCCO)[C@@H]1CN(C(=O)c2ccc(C(=O)N3C[C@@H](C(=O)N[C@H]4C[C@@H]4c4ccccc4)[C@H](C(=O)N[C@H]4C[C@@H]4c4ccccc4)C3)cc2)C[C@H]1C(=O)N[C@H]1C[C@@H]1c1ccccc1 [Compound 10, (3S,4S)-1-(4-((3S,4S)-3,4-Bis(((1S,2R)-2-phenyl-cyclo-propyl)carbamoyl)pyrrolidine-1-carbonyl)-benzoyl)-N^3-(6-hydroxyhexyl)-N^4-((1S,2R)-2-phenyl-cyclopropyl)-pyrrolidine-3,4-dicarboxamide] |  | 90 |  | 180 |  |
| [N-]=[N+]=NCCCCCCCCCCCCNC(=O)[C@@H]1CN(C(=O)c2ccc(C(=O)N3C[C@@H](C(=O)N[C@H]4C[C@@H]4c4ccccc4)[C@H](C(=O)N[C@H]4C[C@@H]4c4ccccc4)C3)cc2)C[C@H]1C(=O)N[C@H]1C[C@@H]1c1ccccc1 [Compound 20, (3S,4S)—N^3-(12-Azidododecyl)-1-(4-((3S,4S)-3,4-bis-(((1S,2R)-2-phenylcyclopropyl)carbamoyl)-pyrrolidine-1-carbonyl)benzoyl)-N^4-((1S,2R)-2-phenylcyclopropyl)-pyrrolidine-3,4-dicarboxamide] | 30 | 0.07 | 50 | 0.6 |  |
| O=C(NCCCCCCCCO)[C@@H]1CN(C(=O)c2ccc(C(=O)N3C[C@@H](C(=O)N[C@H]4C[C@@H]4c4ccccc4)[C@H](C(=O)N[C@H]4C[C@@H]4c4ccccc4)C3)cc2)C[C@H]1C(=O)N[C@H]1C[C@@H]1c1ccccc1 [Compound 9, (3S,4S)-1-(4-((3S,4S)-3,4-Bis(((1S,2R)-2-phenyl-cyclopropyl)carbamoyl)pyrrolidine-1-carbonyl)-benzoyl)-N^3—(8-hydroxyoctyl)-N^4-((1S,2R)-2-phenyl-cyclopropyl)pyrrolidine-3,4-dicarboxamide] |  | 4.3 |  | 93 |  |
| O=C(O)CCOCCOCCOCCNC(=O)[C@@H]1CN(C(=O)c2ccc(C(=O)N3C[C@@H](C(=O)N[C@H]4C[C@@H]4c4ccccc4)[C@H](C(=O)N[C@H]4C[C@@H]4c4ccccc4)C3)cc2)C[C@H]1C(=O)N[C@H]1C[C@@H]1c1ccccc1 [Compound 31, 1-((3S,4S)-1-(4-((3S,4S)-3,4-Bis(((1S,2R)-2-phenylcyclopropyl)carbamoyl)pyrrolidine-1-carbonyl)benzoyl)-4-(((1S,2R)-2-phenylcyclopropyl)-carbamoyl)pyrrolidin-3-yl)-1-oxo-5,8,11-trioxa-2-azatetradecan-14-oic acid] |  |  |  |  | EC50 ([1]; Table 2): 100 nM; EC50 [2]: > 5000 nM |
| O=C(NCCc1ccccc1)[C@@H]1CN(C(=O)c2ccc(C(=O)N3C[C@@H](C(=O)N[C@H]4C[C@@H]4c4ccccc4)[C@H](C(=O)N[C@H]4C[C@@H]4c4ccccc4)C3)cc2)C[C@H]1C(=O)N[C@H]1C[C@@H]1c1ccccc1 [Compound 23, (3S,4S)-1-(4-((3S,4S)-3,4-Bis(((1S,2R)-2-phenyl-cyclopropyl)carbamoyl)pyrrolidine-1-carbonyl)-benzoyl)-N^3-phenethyl-N^4-((1S,2R)-2-phenylcyclo-propyl)pyrrolidine-3,4-dicarboxamide] |  | 1.5 |  | 30 |  |

Now from value to compound, other results behind:

| Emax [1] [%] | EC50 ([1]; Table 1) [nM] | Emax [2] [%] | EC50 [2, 3] [nM] | Structure (SMILES) | also measured |
| --- | --- | --- | --- | --- | --- |
| 100 |  | 120 |  | N#CCC(=O)OCCCCCCCCCCCCNC(=O)[C@@H]1CN(C(=O)c2ccc(C(=O)N3C[C@@H](C(=O)N[C@H]4C[C@@H]4c4ccccc4)[C@H](C(=O)N[C@H]4C[C@@H]4c4ccccc4)C3)cc2)C[C@H]1C(=O)N[C@H]1C[C@@H]1c1ccccc1 [Compound 33, 12-((3S,4S)-1-(4-((3S,4S)-3,4-Bis(((1S,2R)-2-phenylcyclopropyl)carbamoyl)pyrrolidine-1-carbonyl)benzoyl)-4-(((1S,2R)-2-phenylcyclopropyl)-carbamoyl)pyrrolidine-3-carboxamido)dodecyl 2-cyanoacetate] | EC50 ([1]; Table 3): 0.25 nM; EC50 [2, 5]: 4.5 nM |
| 90 |  | 90 |  | COC(=O)CNC(=O)OCCCCCCCCCCCCNC(=O)[C@@H]1CN(C(=O)c2ccc(C(=O)N3C[C@@H](C(=O)N[C@H]4C[C@@H]4c4ccccc4)[C@H](C(=O)N[C@H]4C[C@@H]4c4ccccc4)C3)cc2)C[C@H]1C(=O)N[C@H]1C[C@@H]1c1ccccc1 [Compound 50, Methyl 2-((((12-((3S,4S)-1-(4-((3S,4S)-3,4-bis-(((1S,2R)-2-phenylcyclopropyl)carbamoyl)pyrrolidine-1-carbonyl)benzoyl)-4-(((1S,2R)-2-phenylcyclopropyl)-carbamoyl)pyrrolidine-3-carboxamido)dodecyl)oxy)-carbonyl)amino)acetate] | EC50 ([1]; Table 3): 0.2 nM; EC50 [2, 5]: 6 nM |
| 110 |  | 110 |  | CC(C)(C)C(=O)NCC(=O)OCCCCCCCCCCCCNC(=O)[C@@H]1CN(C(=O)c2ccc(C(=O)N3C[C@@H](C(=O)N[C@H]4C[C@@H]4c4ccccc4)[C@H](C(=O)N[C@H]4C[C@@H]4c4ccccc4)C3)cc2)C[C@H]1C(=O)N[C@H]1C[C@@H]1c1ccccc1 [Compound 42, 12-((3S,4S)-1-(4-((3S,4S)-3,4-Bis(((1S,2R)-2-phenylcyclopropyl)carbamoyl)pyrrolidine-1-carbonyl)benzoyl)-4-(((1S,2R)-2-phenylcyclopropyl)carbamoyl)pyrrolidine-3-carboxamido)-dodecyl 2-pivalamidoacetate] | EC50 ([1]; Table 3): 1.8 nM; EC50 [2, 5]: 6.2 nM |
| 90 |  | 110 |  | CC(C)(C)OC(=O)/C=C/C(=O)NCC(=O)OCCCCCCCCCCCCNC(=O)[C@@H]1CN(C(=O)c2ccc(C(=O)N3C[C@@H](C(=O)N[C@H]4C[C@@H]4c4ccccc4)[C@H](C(=O)N[C@H]4C[C@@H]4c4ccccc4)C3)cc2)C[C@H]1C(=O)N[C@H]1C[C@@H]1c1ccccc1 [Compound 81, (E)-tert-Butyl 4-((2-((12-((3S,4S)-1-(4-((3S,4S)-3,4-bis(((1S,2R)-2-phenylcyclopropyl)carbamoyl)-pyrrolidine-1-carbonyl)benzoyl)-4-(((1S,2R)-2-phenylcyclopropyl)carbamoyl)pyrrolidine-3-carboxamido)dodecyl)oxy)-2-oxoethyl)amino)-4-oxobut-2-enoate] | EC50 ([1]; Table 6): 2 nM; EC50 [2, 6]: 62 nM |
| 90 |  | 100 |  | CC(C)(C)OC(=O)N1CCC[C@H]1C(=O)OCCCCCCCCCCCCNC(=O)[C@@H]1CN(C(=O)c2ccc(C(=O)N3C[C@@H](C(=O)N[C@H]4C[C@@H]4c4ccccc4)[C@H](C(=O)N[C@H]4C[C@@H]4c4ccccc4)C3)cc2)C[C@H]1C(=O)N[C@H]1C[C@@H]1c1ccccc1 [Compound 60, (S)-2-(12-((3S,4S)-1-(4-((3S,4S)-3,4-Bis(((1S,2R)-2-phenylcyclopropyl)carbamoyl)pyrrolidine-1-carbonyl)-benzoyl)-4-(((1S,2R)-2-phenylcyclopropyl)carbamoyl)-pyrrolidine-3-carboxamido)-dodecyl) 1-tert-butyl pyrrolidine-1,2-dicarboxylate] | EC50 ([1]; Table 5): 0.94 nM; EC50 [2, 4]: 9.2 nM |
| 90 |  | 190 |  | CC(C)(C)OC(=O)c1ccc(C(=O)OCCCCCCCCCCCCNC(=O)[C@@H]2CN(C(=O)c3ccc(C(=O)N4C[C@@H](C(=O)N[C@H]5C[C@@H]5c5ccccc5)[C@H](C(=O)N[C@H]5C[C@@H]5c5ccccc5)C4)cc3)C[C@H]2C(=O)N[C@H]2C[C@@H]2c2ccccc2)cc1 [Compound 77, 12-((3S,4S)-1-(4-((3S,4S)-3,4-Bis(((1S,2R)-2-phenylcyclopropyl)carbamoyl)pyrrolidine-1-carbonyl)benzoyl)-4-(((1S,2R)-2-phenyl-cyclopropyl)carbamoyl)pyrrolidine-3-carboxamido)-dodecyl tert-butyl terephthalate] | EC50 ([1]; Table 6): 165 nM; EC50 [2, 6]: 785 nM |
